According to ChEMBL document CHEMBL5046289, “Targeting the S2 Subsite Enables the Structure-Based Discovery of Novel Highly Selective Factor XIa Inhibitors” (J Med Chem, 2022):
Activity calls are given as the source filed them. The calls are words filed in the database; no cut-off is given here.

Columns and labels:
[1] = target: T1, Coagulation factor XII (Homo sapiens) (UniProt P00748); assay: Inhibition of coagulation factor XIIa (unknown origin) assessed as chromogenic substrate using TH5253 as substrate at 1 mM incubated for 1 hr by spectrophotometer based microplate reader method
T1 sequence (whole entry): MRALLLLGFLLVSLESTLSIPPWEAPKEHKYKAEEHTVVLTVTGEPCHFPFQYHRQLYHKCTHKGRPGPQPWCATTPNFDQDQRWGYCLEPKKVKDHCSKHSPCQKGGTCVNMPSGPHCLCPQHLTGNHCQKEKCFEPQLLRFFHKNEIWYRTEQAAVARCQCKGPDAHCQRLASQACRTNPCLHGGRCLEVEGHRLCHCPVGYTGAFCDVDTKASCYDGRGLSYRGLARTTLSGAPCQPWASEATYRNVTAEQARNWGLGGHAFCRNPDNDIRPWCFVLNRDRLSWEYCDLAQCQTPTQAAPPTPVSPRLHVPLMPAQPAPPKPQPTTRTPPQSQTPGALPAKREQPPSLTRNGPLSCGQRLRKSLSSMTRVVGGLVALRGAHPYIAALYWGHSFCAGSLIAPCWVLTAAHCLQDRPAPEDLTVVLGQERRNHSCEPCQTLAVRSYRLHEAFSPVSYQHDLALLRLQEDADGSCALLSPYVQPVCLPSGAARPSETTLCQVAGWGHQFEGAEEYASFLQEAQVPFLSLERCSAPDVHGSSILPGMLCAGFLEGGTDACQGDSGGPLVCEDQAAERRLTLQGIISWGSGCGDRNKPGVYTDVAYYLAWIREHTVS

Plasma kallikrein = Plasma kallikrein (Homo sapiens, UniProt P03952); assay: Inhibition of plasma kallikrein (unknown origin) assessed as chromogenic substrate hydrolysis using CS-31(02) as substrate incubated for 1 hr by spectrophotometer based microplate reader method
Chain of Plasma kallikrein (P03952 20-390 limits assumed): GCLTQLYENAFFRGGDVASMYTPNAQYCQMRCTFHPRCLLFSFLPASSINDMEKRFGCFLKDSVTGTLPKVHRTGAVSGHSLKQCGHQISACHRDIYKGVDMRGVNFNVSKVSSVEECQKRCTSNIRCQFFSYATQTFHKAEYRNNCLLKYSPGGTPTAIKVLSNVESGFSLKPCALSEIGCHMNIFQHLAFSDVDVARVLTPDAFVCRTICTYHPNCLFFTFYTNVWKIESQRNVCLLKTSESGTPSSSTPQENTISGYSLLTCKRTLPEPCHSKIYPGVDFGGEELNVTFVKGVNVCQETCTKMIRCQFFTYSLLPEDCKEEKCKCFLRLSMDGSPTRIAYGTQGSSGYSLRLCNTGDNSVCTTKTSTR
Chain of Plasma kallikrein (P03952 391-638 limits assumed): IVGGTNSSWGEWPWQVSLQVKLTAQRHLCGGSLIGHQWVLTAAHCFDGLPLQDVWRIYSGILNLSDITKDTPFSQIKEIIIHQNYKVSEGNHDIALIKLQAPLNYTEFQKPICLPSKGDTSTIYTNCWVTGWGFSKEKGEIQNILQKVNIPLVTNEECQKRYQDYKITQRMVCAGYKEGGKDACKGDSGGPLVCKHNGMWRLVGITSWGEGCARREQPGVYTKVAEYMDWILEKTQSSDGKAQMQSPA

[2] = Acute toxicity in ICR female mouse assessed as effect on weight loss at 50 to 100 mg/kg, iv as single dose for 14 days; type: organism-based; settings: in vivo, 336 h, dose 50-100 mg/kg, time 14 day
[3] = Acute toxicity in ICR mouse assessed as histological change in kidney at 50 to 100 mg/kg, iv as single dose for 14 days by H and E staining method; type: organism-based; settings: in vivo, 336 h, dose 50-100 mg/kg, time 14 day
Coagulation factor X = Coagulation factor X (Homo sapiens, UniProt P00742); assay: Inhibition of coagulation factor Xa (unknown origin) assessed as chromogenic substrate using CS-11(22) as substrate incubated for 1 hr by spectrophotometer based microplate reader method
Chain of Coagulation factor X (P00742 41-179 limits assumed): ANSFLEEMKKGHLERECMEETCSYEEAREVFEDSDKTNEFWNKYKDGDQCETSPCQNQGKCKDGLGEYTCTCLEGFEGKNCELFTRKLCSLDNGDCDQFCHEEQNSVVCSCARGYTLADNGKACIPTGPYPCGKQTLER
Chain of Coagulation factor X (P00742 235-488 limits assumed): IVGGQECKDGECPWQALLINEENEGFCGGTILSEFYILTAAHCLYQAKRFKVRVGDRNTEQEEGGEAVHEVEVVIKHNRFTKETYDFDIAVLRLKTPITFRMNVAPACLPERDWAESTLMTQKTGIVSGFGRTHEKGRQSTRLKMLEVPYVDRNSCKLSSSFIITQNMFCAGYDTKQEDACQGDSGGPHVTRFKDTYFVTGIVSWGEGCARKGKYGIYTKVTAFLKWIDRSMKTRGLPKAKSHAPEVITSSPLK

[4] = AUC(0 to t) in Sprague-Dawley rat at 10 mg/kg, iv after 0.083 to 24 hrs by LC-MS/MS analysis; type: ADME, organism-based; parameters: route intravenous, time upper 24 hrs, time lower 0.083 hrs, dose 10 mg/kg; settings: in vivo
Homo sapiens = species on record: Homo sapiens; assay: Selectivity index, ratio of IC50 for thrombin (unknown origin) to IC50 for coagulation factor XIa (unknown origin)

Compound: O=C(/C=C/c1cc(Cl)ccc1-n1cnnn1)N[C@@H](CC(=O)N1CCN(c2ccccc2)CC1)C(=O)Nc1ccc(C(=O)O)cc1
- inhibition [1]: inactive
- IC50 (Plasma kallikrein): 27.9 µM
- Activity [2]: Non-Toxic
- Activity [3]: Non-Toxic
- IC50 (Coagulation factor X): 340 µM
- AUC(0-t) [4]: 18300 ng·h/mL
- Ratio IC50 (Homo sapiens): > 5000
